Assay results as given in ChEMBL document CHEMBL3046164, “A facile synthesis of some 3-cyano-1,4,6-trisubstituted-2(1H)-pyridinones and their biological evaluation as anticancer agents” (2011).
“And” between values parts separate entries of the source, which are not always exact repeats. Identical values can stand only once.

Tests used:
Assay type in all cases: functional
MDA-MB-468 = experiment: Growth inhibition of Homo sapiens (human) MDA-MB-468 cells at 10 uM after 48 hr by SRB assay; conditions: MDA-MB-468, 48 h, read-out: GI
CCRF-CEM [1] = experiment: Growth inhibition of Homo sapiens (human) CCRF-CEM cells at 10 uM after 48 hr by SRB assay; conditions: read-out: GI
PC-3 = experiment: Growth inhibition of Homo sapiens (human) PC3 cells at 10 uM after 48 hr by SRB assay; conditions: PC-3, 48 h, read-out: GI
RPMI-8226 [2] = experiment: Growth inhibition of Homo sapiens (human) RPMI8226 cells at 10 uM after 48 hr by SRB assay; conditions: RPMI-8226, 48 h, read-out: GI
HOP-92 [3] = experiment: Growth inhibition of Homo sapiens (human) HOP92 cells at 10 uM after 48 hr by SRB assay; conditions: HOP-92, 48 h, read-out: GI
HOP-62 = experiment: Cytotoxicity against Homo sapiens (human) HOP62 cells after 48 hr by SRB assay; conditions: HOP-62, 48 h
SNB-75 [4] = experiment: Growth inhibition of Homo sapiens (human) SNB75 cells at 10 uM after 48 hr by SRB assay; conditions: SNB-75, 48 h, read-out: GI
EKVX = experiment: Cytotoxicity against Homo sapiens (human) EKVX cells after 48 hr by SRB assay
SNB-75 [5] = experiment: Cytotoxicity against Homo sapiens (human) SNB75 cells after 48 hr by SRB assay; conditions: SNB-75, 48 h
IGROV-1 = experiment: Cytotoxicity against Homo sapiens (human) IGROV1 cells after 48 hr by SRB assay; conditions: IGROV-1, 48 h
HL-60(TB) = experiment: Cytotoxicity against Homo sapiens (human) HL-60(TB) cells after 48 hr by SRB assay; conditions: HL-60, 48 h
HOP-92 [6] = experiment: Cytotoxicity against Homo sapiens (human) HOP92 cells after 48 hr by SRB assay; conditions: HOP-92, 48 h
K562 = experiment: Growth inhibition of Homo sapiens (human) K562 cells at 10 uM after 48 hr by SRB assay; conditions: K562, 48 h, read-out: GI
OVCAR-4 = experiment: Cytotoxicity against Homo sapiens (human) OVCAR4 cells after 48 hr by SRB assay; conditions: OVCAR-4, 48 h
A498 [7] = experiment: Cytotoxicity against Homo sapiens (human) A498 cells after 48 hr by SRB assay; conditions: A498, 48 h
MDA-MB-231 = experiment: Cytotoxicity against Homo sapiens (human) MDA-MB-231 cells after 48 hr by SRB assay; conditions: MDA-MB-231, 48 h
T47D [8] = experiment: Cytotoxicity against Homo sapiens (human) T47D cells after 48 hr by SRB assay
HCC 2998 = experiment: Cytotoxicity against Homo sapiens (human) HCC2998 cells after 48 hr by SRB assay; conditions: HCC 2998, 48 h
UACC-62 = experiment: Cytotoxicity against Homo sapiens (human) UACC62 cells after 48 hr by SRB assay; conditions: UACC-62, 48 h
SR [9] = experiment: Cytotoxicity against Homo sapiens (human) SR cells after 48 hr by SRB assay
CCRF-CEM [10] = experiment: Cytotoxicity against Homo sapiens (human) CCRF-CEM cells after 48 hr by SRB assay
SF-268 = experiment: Cytotoxicity against Homo sapiens (human) SF268 cells after 48 hr by SRB assay; conditions: SF-268, 48 h
UO-31 [11] = experiment: Cytotoxicity against Homo sapiens (human) UO31 cells after 48 hr by SRB assay; conditions: UO-31, 48 h
BT-549 [12] = experiment: Cytotoxicity against Homo sapiens (human) BT549 cells after 48 hr by SRB assay; conditions: BT-549, 48 h
T47D [13] = experiment: Growth inhibition of Homo sapiens (human) T47D cells at 10 uM after 48 hr by SRB assay; conditions: read-out: GI
RPMI-8226 [14] = experiment: Cytotoxicity against Homo sapiens (human) RPMI8226 cells after 48 hr by SRB assay
MCF7 = experiment: Growth inhibition of Homo sapiens (human) MCF7 cells at 10 uM after 48 hr by SRB assay; conditions: MCF7, 48 h, read-out: GI
SF-539 = experiment: Cytotoxicity against Homo sapiens (human) SF539 cells after 48 hr by SRB assay; conditions: SF-539, 48 h
OVCAR-3 = experiment: Cytotoxicity against Homo sapiens (human) OVCAR3 cells after 48 hr by SRB assay; conditions: OVCAR-3, 48 h
OVCAR-5 = experiment: Growth inhibition of Homo sapiens (human) OVCAR5 cells at 10 uM after 48 hr by SRB assay; conditions: OVCAR-5, 48 h, read-out: GI
UO-31 [15] = experiment: Growth inhibition of Homo sapiens (human) UO31 cells at 10 uM after 48 hr by SRB assay; conditions: UO-31, 48 h, read-out: GI
SR [16] = experiment: Growth inhibition of Homo sapiens (human) SR cells at 10 uM after 48 hr by SRB assay; conditions: read-out: GI
BT-549 [17] = experiment: Growth inhibition of Homo sapiens (human) BT549 cells at 10 uM after 48 hr by SRB assay; conditions: BT-549, 48 h, read-out: GI
A498 [18] = experiment: Growth inhibition of Homo sapiens (human) A498 cells at 10 uM after 48 hr by SRB assay; conditions: A498, 48 h, read-out: GI

`CCn1c(-c2ccc(Br)cc2)cc(-c2cccn2C)c(C#N)c1=O` showed an inhibition of growth at 10 µM (MDA-MB-468) of 30%, an inhibition of growth at 10 µM (CCRF-CEM [1]) of 62.5% and an inhibition of growth at 10 µM (PC-3) of 28%. The inhibition of growth at 10 µM (RPMI-8226 [2]) was 35% and the inhibition of growth at 10 µM (HOP-92 [3]) was 28.3%.

In the case of `COc1ccc(-c2cc(-c3cccn3C)c(C#N)c3nnc(C)n23)cc1OC`, the GI50 (HOP-62) is reported as 37.1 µM, the inhibition of growth at 10 µM (SNB-75 [4]) is reported as 25.8% and the GI50 (EKVX) is reported as 0.01 µM. It also gave a TGI (EKVX) of 0.03 µM, a GI50 (SNB-75 [5]) of 44.7 µM and a GI50 (IGROV-1) of over 100 µM. It also gave a GI50 (HL-60(TB)) of over 100 µM, a GI50 (HOP-92 [6]) of over 100 µM and an inhibition of growth at 10 µM (K562) of 41.5%. For the same compound, the GI50 (OVCAR-4) was over 100 µM, the GI50 (A498 [7]) was 25.7 µM and the GI50 (MDA-MB-231) was over 100 µM. It also gave a GI50 (T47D [8]) of over 100 µM, a GI50 (HCC 2998) of over 100 µM and an inhibition of growth at 10 µM (CCRF-CEM [1]) of 39.2%. For the same compound, the GI50 (UACC-62) was 95.5 µM, the inhibition of growth at 10 µM (PC-3) was 23.8% and the GI50 (SR [9]) was over 100 µM. For the same compound, the GI50 (CCRF-CEM [10]) was over 100 µM, the inhibition of growth at 10 µM (HOP-92 [3]) was 48% and the GI50 (SF-268) was over 100 µM. The GI50 (UO-31 [11]) was over 100 µM, the GI50 (BT-549 [12]) was over 100 µM and the inhibition of growth at 10 µM (T47D [13]) was 34.3%. For the same compound, the GI50 (RPMI-8226 [14]) was 45.7 µM and 19 µM, the inhibition of growth at 10 µM (MCF7) was 29% and the GI50 (SF-539) was over 100 µM. The GI50 (OVCAR-3) was over 100 µM.

With `Cn1cccc1-c1cc(-c2ccc(Br)cc2)n(C=O)c(=O)c1C#N` the inhibition of growth at 10 µM (K562) was 54.8%, the inhibition of growth at 10 µM (OVCAR-5) was 26.9% and the inhibition of growth at 10 µM (UO-31 [15]) was 29.7%. For the same compound, the inhibition of growth at 10 µM (HOP-92 [3]) was 24.2%.

`Cn1cccc1-c1cc(-c2ccc(Br)cc2)n(N=O)c(=O)c1C#N` showed an inhibition of growth at 10 µM (SR [16]) of 37.5%, an inhibition of growth at 10 µM (BT-549 [17]) of 32.8% and an inhibition of growth at 10 µM (A498 [18]) of 25.7%. The inhibition of growth at 10 µM (HOP-92 [3]) was 28.2%.
